Experimental data: patent publication US20100076015A1, “Aminopyridine Derivatives” (VANTIA LIMITED, priority 2008, published 2010)

molecular target: T1, Human KLK1 (Homo sapiens, UniProt P06870); assay: Determination of the IC50 for KLK1 (fluorogenic substrate H-DVal-Leu-Arg-AFC); type: biochemical; conditions: 37° C.
T1 construct: purchased Callbiochem (Calbiochem)
Summary of the method: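 IC50 values reflect residual human KLK1 activity, read as initial rate from optical absorbance change at 410 nm. Incubations ran at 37° C with H-DVal-Leu-Arg-AFC as substrate across a compound concentration series.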

T1 sequence (P06870 25-262): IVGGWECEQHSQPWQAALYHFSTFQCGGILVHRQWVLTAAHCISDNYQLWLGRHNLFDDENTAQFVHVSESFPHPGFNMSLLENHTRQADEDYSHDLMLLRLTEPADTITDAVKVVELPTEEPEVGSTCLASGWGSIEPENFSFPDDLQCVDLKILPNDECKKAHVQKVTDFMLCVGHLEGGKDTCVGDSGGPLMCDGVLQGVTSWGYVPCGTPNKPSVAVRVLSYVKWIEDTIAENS

| Compound | IC50 [nM] |
| --- | --- |
| COc1ccc2[nH]c(C(=O)N[C@@H](Cc3cccc(C)c3)C(=O)NCc3ccc(N)nc3)cc2c1 [Example 318, 5-Methoxy-1H-indole-2-carboxylic acid {(S)-1-[(6-amino-pyridin-3-ylmethyl)-carbamoyl]-2-m-tolyl-ethyl}-amide] | 12.1 |
| Cc1cccc(C[C@H](NC(=O)c2cc3ccccc3[nH]2)C(=O)NCc2ccc(N)nc2C)c1 [Example 319, 1H-Indole-2-carboxylic acid {(S)-1-[(6-amino-2-methyl-pyridin-3-ylmethyl)-carbamoyl]-2-m-tolyl-ethyl}-amide] | 110 |
| Cc1nc(N)ccc1CNC(=O)[C@H](Cc1ccc(Cl)c(Cl)c1)NC(=O)c1cc2ccccc2[nH]1 [Example 320, 1H-Indole-2-carboxylic acid [(S)-1-[(6-amino-2-methyl-pyridin-3-ylmethyl)-carbamoyl]-2-(3,4-dichloro-phenyl)-ethyl]-amide] | 98.5 |
| COc1ccc2[nH]c(C(=O)N[C@@H](Cc3ccc(Cl)c(Cl)c3)C(=O)NCc3ccc(N)nc3C)cc2c1 [Example 321, 5-Methoxy-1H-indole-2-carboxylic acid [(S)-1-[(6-amino-2-methyl-pyridin-3-ylmethyl)-carbamoyl]-2-(3,4-dichloro-phenyl)-ethyl]-amide] | 85.4 |
| Cc1nc(N)ccc1CNC(=O)[C@H](Cc1ccccc1C(F)(F)F)NC(=O)c1cc2ccccc2[nH]1 [Example 322, 1H-Indole-2-carboxylic acid [(S)-1-[(6-amino-2-methyl-pyridin-3-ylmethyl)-carbamoyl]-2-(2-trifluoromethyl-phenyl)-ethyl]-amide] | 12.4 |
| Nc1ccc(CNC(=O)[C@H](Cc2ccc(F)c(F)c2)NC(=O)c2nc3ccccc3[nH]2)cn1 [Example 328, 1H-Benzoimidazole-2-carboxylic acid [(S)-1-[(6-amino-pyridin-3-ylmethyl)-carbamoyl]-2-(3,4-difluoro-phenyl)-ethyl]-amide] | 179 |
| COc1ccc2[nH]c(C(=O)N[C@@H](Cc3ccc(F)cc3)C(=O)NCc3ccc(N)nc3)cc2c1 [Example 332, 5-Methoxy-1H-indole-2-carboxylic acid [(S)-1-[(6-amino-pyridin-3-ylmethyl)-carbamoyl]-2-(4-fluoro-phenyl)-ethyl]-amide] | 21.5 |
| Nc1ccc(CNC(=O)[C@H](Cc2ccc(F)cc2)NC(=O)c2nc3ccccc3[nH]2)cn1 [Example 333, 1H-Benzoimidazole-2-carboxylic acid [(S)-1-[(6-amino-pyridin-3-ylmethyl)-carbamoyl]-2-(4-fluoro-phenyl)-ethyl]-amide] | 184 |
| Nc1ccc(CNC(=O)[C@H](CC2CCCCC2)NC(=O)c2cc3ccccc3[nH]2)cn1 [Example 338, 1H-Indole-2-carboxylic acid {(S)-1-[(6-amino-pyridin-3-ylmethyl)-carbamoyl]-2-cyclohexyl-ethyl}-amide] | 881 |
| CCC(C)[C@H](NC)C(=O)N[C@@H](CC1CCCCC1)C(=O)NCc1ccc(N)nc1 (stereo partly drawn) [Example 339, (S)-3-Methyl-2-methylamino-pentanoic acid {(S)-1-[(6-amino-pyridin-3-ylmethyl)-carbamoyl]-2-cyclohexyl-ethyl}-amide] | 39.8 |
| CN[C@@H](C(=O)N[C@@H](Cc1cccc(Cl)c1)C(=O)NCc1ccc(N)nc1)C(C)C [Example 341, (R)—N-[(S)-1-[(6-Amino-pyridin-3-ylmethyl)-carbamoyl]-2-(3-chloro-phenyl)-ethyl]-3-methyl-2-methylamino-butyramide] | 2.2 |
| CN[C@H](Cc1ccccc1)C(=O)N[C@@H](Cc1cccc(Cl)c1)C(=O)NCc1ccc(N)nc1 [Example 342, (R)—N-[(S)-1-[(6-Amino-pyridin-3-ylmethyl)-carbamoyl]-2-(3-chloro-phenyl)-ethyl]-2-methylamino-3-phenyl-propionamide] | 2.7 |
| C[C@@H](C(=O)N[C@@H](Cc1ccc(F)c(F)c1)C(=O)NCc1ccc(N)nc1)N(C)CC1CCCCC1 [Example 343, (S)—N-[(S)-1-[(6-Amino-pyridin-3-ylmethyl)-carbamoyl]-2-(3,4-difluoro-phenyl)-ethyl]-2-(cyclohexylmethyl-methyl-amino)-propionamide] | 91 |
| C[C@@H](C(=O)N[C@@H](Cc1ccc(F)c(F)c1)C(=O)NCc1ccc(N)nc1)N(C)C [Example 344, (S)—N-[(S)-1-[(6-Amino-pyridin-3-ylmethyl)-carbamoyl]-2-(3,4-difluoro-phenyl)-ethyl]-2-dimethylamino-propionamide] | 21.3 |
| CCN(C)[C@@H](C)C(=O)N[C@@H](Cc1ccc(F)c(F)c1)C(=O)NCc1ccc(N)nc1 [Example 345, (S)—N-[(S)-1-[(6-Amino-pyridin-3-ylmethyl)-carbamoyl]-2-(3,4-difluoro-phenyl)-ethyl]-2-(ethyl-methyl-amino)-propionamide] | 7.7 |
| CCCN(C)[C@@H](C)C(=O)N[C@@H](Cc1ccc(F)c(F)c1)C(=O)NCc1ccc(N)nc1 [Example 346, (S)—N-[(S)-1-[(6-Amino-pyridin-3-ylmethyl)-carbamoyl]-2-(3,4-difluoro-phenyl)-ethyl]-2-(methyl-propyl-amino)-propionamide] | 21.3 |
| CCCCN(C)[C@@H](C)C(=O)N[C@@H](Cc1ccc(F)c(F)c1)C(=O)NCc1ccc(N)nc1 [Example 347, (S)—N-[(S)-1-[(6-Amino-pyridin-3-ylmethyl)-carbamoyl]-2-(3,4-difluoro-phenyl)-ethyl]-2-(butyl-methyl-amino)-propionamide] | 24.5 |
| CC(C)[C@@H](C(=O)N[C@@H](Cc1ccc(F)c(F)c1)C(=O)NCc1ccc(N)nc1)N(C)C(C)C [Example 348, (S)—N-[(S)-1-[(6-Amino-pyridin-3-ylmethyl)-carbamoyl]-2-(3,4-difluoro-phenyl)-ethyl]-2-(isopropyl-methyl-amino)-3-methyl-butyramide] | 11.1 |
| CCC(C)[C@@H](C(=O)N[C@@H](Cc1ccc(F)c(F)c1)C(=O)NCc1ccc(N)nc1)N(C)C(C)C (stereo partly drawn) [Example 349, (S)-2-(Isopropyl-methyl-amino)-3-methyl-pentanoic acid [(S)-1-[(6-amino-pyridin-3-ylmethyl)-carbamoyl]-2-(3,4-difluoro-phenyl)-ethyl]-amide] | 7.8 |
| CC(C)N(C(C)C)[C@@H](C)C(=O)N[C@@H](Cc1ccc(F)c(F)c1)C(=O)NCc1ccc(N)nc1 [Example 350, (S)—N-[(S)-1-[(6-Amino-pyridin-3-ylmethyl)-carbamoyl]-2-(3,4-difluoro-phenyl)-ethyl]-2-diisopropylamino-propionamide] | 28.5 |
| CN(C)[C@@H](Cc1ccccc1)C(=O)N[C@@H](Cc1ccc(F)c(F)c1)C(=O)NCc1ccc(N)nc1 [Example 351, (S)—N-[(S)-1-[(6-Amino-pyridin-3-ylmethyl)-carbamoyl]-2-(3,4-difluoro-phenyl)-ethyl]-2-dimethylamino-3-phenyl-propionamide] | 8.8 |

Results, then the compound that gave them:

| IC50 [nM] | Compound |
| --- | --- |
| 48.1 | Nc1ccc(CNC(=O)[C@H](Cc2cc(F)cc(F)c2)NC(=O)c2cc3ccccc3[nH]2)cn1 [Example 323, 1H-Indole-2-carboxylic acid [(S)-1-[(6-amino-pyridin-3-ylmethyl)-carbamoyl]-2-(3,5-difluoro-phenyl)-ethyl]-amide] |
| 68.4 | Nc1ccc(CNC(=O)[C@H](Cc2cc(F)c(F)cc2F)NC(=O)c2cc3ccccc3[nH]2)cn1 [Example 324, 1H-Indole-2-carboxylic acid [(S)-1-[(6-amino-pyridin-3-ylmethyl)-carbamoyl]-2-(2,4,5-trifluoro-phenyl)-ethyl]-amide] |
| 21.3 | Nc1ccc(CNC(=O)[C@H](Cc2ccc(F)c(F)c2)NC(=O)c2cc3ccccc3[nH]2)cn1 [Example 325, 1H-Indole-2-carboxylic acid [(S)-1-[(6-amino-pyridin-3-ylmethyl)-carbamoyl]-2-(3,4-difluoro-phenyl)-ethyl]-amide] |
| 25.4 | Nc1ccc(CNC(=O)[C@H](Cc2ccc(F)c(F)c2)NC(=O)c2cc3cc(F)ccc3[nH]2)cn1 [Example 326, 5-Fluoro-1H-indole-2-carboxylic acid [(S)-1-[(6-amino-pyridin-3-ylmethyl)-carbamoyl]-2-(3,4-difluoro-phenyl)-ethyl]-amide] |
| 17.8 | COc1ccc2[nH]c(C(=O)N[C@@H](Cc3ccc(F)c(F)c3)C(=O)NCc3ccc(N)nc3)cc2c1 [Example 327, 5-Methoxy-1H-indole-2-carboxylic acid [(S)-1-[(6-amino-pyridin-3-ylmethyl)-carbamoyl]-2-(3,4-difluoro-phenyl)-ethyl]-amide] |
| 299 | Nc1ccc(CNC(=O)[C@H](Cc2c(F)c(F)c(F)c(F)c2F)NC(=O)c2cc3ccccc3[nH]2)cn1 [Example 329, 1H-Indole-2-carboxylic acid {(S)-1-[(6-amino-pyridin-3-ylmethyl)-carbamoyl]-2-pentafluorophenyl-ethyl}-amide] |
| 23.6 | Nc1ccc(CNC(=O)[C@H](Cc2ccc(F)cc2)NC(=O)c2cc3ccccc3[nH]2)cn1 [Example 330, 1H-Indole-2-carboxylic acid [(S)-1-[(6-amino-pyridin-3-ylmethyl)-carbamoyl]-2-(4-fluoro-phenyl)-ethyl]-amide] |
| 32 | Nc1ccc(CNC(=O)[C@H](Cc2ccc(F)cc2)NC(=O)c2cc3cc(F)ccc3[nH]2)cn1 [Example 331, 5-Fluoro-1H-indole-2-carboxylic acid [(S)-1-[(6-amino-pyridin-3-ylmethyl)-carbamoyl]-2-(4-fluoro-phenyl)-ethyl]-amide] |
| 235 | COc1ccc(C[C@H](NC(=O)c2cc3ccccc3[nH]2)C(=O)NCc2ccc(N)nc2)cc1 [Example 334, 1H-Indole-2-carboxylic acid [(S)-1-[(6-amino-pyridin-3-ylmethyl)-carbamoyl]-2-(4-methoxy-phenyl)-ethyl]-amide] |
| 15.8 | Nc1ccc(CNC(=O)[C@H](Cc2csc3ccccc23)NC(=O)c2cc3ccccc3[nH]2)cn1 [Example 335, 1H-Indole-2-carboxylic acid {(S)-1-[(6-amino-pyridin-3-ylmethyl)-carbamoyl]-2-benzo[b]thiophen-3-yl-ethyl}-amide] |
